Results as given in publication PMC7996328, “Design, Synthesis, and Biological Evaluation of a Series of 5- and 7-Hydroxycoumarin Derivatives as 5-HT1A Serotonin Receptor Antagonists” (Pharmaceuticals, 2021).
“Also recorded” adds a separate entry of the source. Where two headings read alike, the source gives them in different places.

Assays:
5-HT1A receptor = target: T1, 5-HT1A receptor (Rattus norvegicus, UniProt P19327); assay: Antagonist activity for the 5-HT1A receptor, [35S]GTPγS assay in hippocampal homogenates; assay type: biochemical; details: 8-OH-DPAT 1.4 × 10^−7 M, mean ± SEM; for EC50 (nM ± SEM) / EC50: antagonistic activity
T1 construct: Hippocampal homogenates (15 μg/mL) were added to each tube as the 5-HT1A receptor source; from tissue; host or cells: rat hippocampus (male Sprague-Dawley), membrane homogenate
T1 sequence (P19327 1-422): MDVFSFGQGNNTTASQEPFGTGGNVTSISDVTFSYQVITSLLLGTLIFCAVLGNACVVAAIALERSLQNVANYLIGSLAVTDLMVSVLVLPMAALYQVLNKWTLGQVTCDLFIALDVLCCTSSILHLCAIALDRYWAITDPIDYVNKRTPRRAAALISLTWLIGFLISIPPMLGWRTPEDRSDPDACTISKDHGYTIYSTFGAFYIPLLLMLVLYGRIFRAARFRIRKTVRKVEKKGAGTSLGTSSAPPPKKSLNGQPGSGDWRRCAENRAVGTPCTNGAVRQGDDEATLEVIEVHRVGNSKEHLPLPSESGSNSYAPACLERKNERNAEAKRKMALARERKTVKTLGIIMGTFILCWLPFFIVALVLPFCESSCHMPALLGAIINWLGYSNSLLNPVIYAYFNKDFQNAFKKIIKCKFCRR
Description: Male Sprague–Dawley rats were decapitated, their brains removed, and placed on ice. Hippocampi were dissected and homogenized with a glass homogenizer in 30 vol. ice-cold TED buffer (50 mM Tris-HCl, 1 mM EDTA, 1mM dithiotheritol, pH 7.4). Next, the homogenate was centrifuged at 21,000× g for 30 min at 4 °C. […] The suspension was centrifuged again at 21,000× g for 30 min at 4 °C. The pellet was resuspended in 30 vol. TED buffer (pH 7.4) and the centrifugation step was repeated. The final pellet was suspended in 10 vol 50 mM Tris-HCl (pH 7.4) and stored at −80 °C until use.
Serial dilutions of the compounds tested (10^−10–10^−5 M) were incubated in triplicate with 0.8 nM [^35S]GTPγS in assay buffer (50 mM Tris-HCl, pH = 7.4, 1 mM EGTA, 3 mM MgCl2, 100 mM NaCl, 30 µM GDP) and 8-OH-DPAT (final concentration 1.4 × 10^−7 M) in the final assay volume of 250 µL. Hippocampal homogenates (15 μg/mL) were added to each tube as the 5-HT1A receptor source. […] Non-specific binding was determined with 10 µM of unlabeled GTPγS. […] Next, 96-well Unifilter® Plates (Perkin Elmer, Waltham, MA, USA) were presoaked for 1 h with 50 mM Tris-HCl (pH = 7.4) before harvesting. The reaction was terminated by vacuum filtration onto filter plates with the FilterMate Harvester® (Perkin Elmer, Waltham, MA, USA). The samples were then rapidly washed with 2 mL of 50 mM Tris-HCl (pH = 7.4) buffer. Filter plates were dried for 2 h at 50 °C. After drying, 45 µL of EcoScint-20 scintillant (Perkin Elmer) was added to every well. Radioactivity was counted in a Trilux MicroBeta^2 counter (Perkin Elmer). Data were analyzed with GraphPad Prism 5.0 software (GraphPad Software, San Diego, CA, USA, www.graphpad.com). Curves were fitted with a one-site non-linear regression model. Efficacy (Emax) and half maximal inhibitory concentration (IC50) were calculated from the Cheng–Prusoff equation and expressed as means ± SEM.

5-HT2A receptor = target: T2, 5-HT2A receptor (Rattus norvegicus, UniProt P14842); assay: 5-HT2A competition binding assay, [3H]ketanserin, frontal cortex homogenates; details: [3H]ketanserin 1 nM
T2 construct: from tissue; host or cells: rat frontal cortex (male SD), membrane homogenate
T2 sequence (P14842 whole entry): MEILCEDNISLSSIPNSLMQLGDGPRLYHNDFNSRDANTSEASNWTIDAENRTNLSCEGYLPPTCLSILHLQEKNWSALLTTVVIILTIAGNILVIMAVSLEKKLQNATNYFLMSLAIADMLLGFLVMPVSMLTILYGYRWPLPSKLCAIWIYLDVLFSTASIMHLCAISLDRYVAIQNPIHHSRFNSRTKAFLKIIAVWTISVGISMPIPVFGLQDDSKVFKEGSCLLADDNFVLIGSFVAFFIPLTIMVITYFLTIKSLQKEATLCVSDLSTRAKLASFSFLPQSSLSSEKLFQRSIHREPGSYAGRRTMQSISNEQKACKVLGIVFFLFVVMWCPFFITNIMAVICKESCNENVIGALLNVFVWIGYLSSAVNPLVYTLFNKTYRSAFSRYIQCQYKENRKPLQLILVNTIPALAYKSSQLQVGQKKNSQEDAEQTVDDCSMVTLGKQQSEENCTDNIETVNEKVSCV
Description: Male SD rats were decapitated and their brains removed and placed on ice. Frontal cortices were homogenized with a glass homogenizer in 30 vol ice-cold homogenization buffer (50 mM Tris-HCl. 1 mM EDTA. 5 mM MgCl2. pH 7.4). Next, the homogenate was centrifuged at 20,000× g for 15 min at 4 °C. […] The suspension was again centrifuged at 20,000× g for 15 min at 4 °C. The pellet was resuspended in 10 vol. 50 mM Tris-HCl (pH 7.4) and the centrifugation step was repeated. The final pellet was suspended in 10 vol 50 mM Tris-HCl (pH 7.4) and stored at −80 °C.
Non-specific binding was determined in the presence of 10 μM mianserin. After incubation, the reaction mixture was deposited onto UniFilter-96 GF/B plates with the aid of a FilterMate-96 Harvester. Filter plates were presoaked beforehand with 0.4% PEI for 1 h. Next, each filter well was washed with 1.75 mL of 50 mM Tris-HCl (pH 7.4) and left to dry on a heating block set to 50 °C for 2 h. Then 45 µL of Microscint-20 scintillation fluid was added to each filter well and left to equilibrate overnight. Filter-bound radioactivity was counted in a MicroBeta^2 Microplate Counter. Binding curves were fitted with one site non-linear regression. Affinity was presented as the inhibitory constant (pKi ± SEM and Ki ± SEM) from two or three separate experiments.

[1] = read-out: Ki (nM ± SEM) (converted)

| Compound | pIC50 ± SEM (5-HT1A receptor) | EC50 (nM ± SEM) (5-HT1A receptor) | Ki (5-HT2A receptor; [1]) | melting point | IC50 (5-HT1A receptor) | EC50 (5-HT1A receptor) | Ki (5-HT2A receptor; read-out: pKi (M ± SEM) (converted)) |
| --- | --- | --- | --- | --- | --- | --- | --- |
| Cc1cc(C)cc(N2CCN(CCOc3cc(C)cc4oc(=O)cc(C)c34)CC2)c1 [Compound 2h, 5-(2-(4-(3,5-dimethylphenyl)piperazin-1-yl)ethoxy)-4,7-dimethyl-2H-chromen-2-one] | no activity | did not show any activity; also recorded: no activity | 2920 ± 992 nM | 149 to 150 °C |  |  |  |
| Cc1cc(OCCN2CCN(c3cccc(Cl)c3Cl)CC2)c2c(C)cc(=O)oc2c1 [Compound 2i, 5-(2-(4-(2,3-dichlorophenyl)piperazin-1-yl)ethoxy)-4,7-dimethyl-2H-chromen-2-one] |  |  | 4310 ± 1550 nM | 142 to 145 °C | 398000 nM | 366000 nM |  |
| Cc1cc(OCCN2CCN(c3ccccc3C#N)CC2)c2c(C)cc(=O)oc2c1 [Compound 2j, 5-(2-(4-(2-cyanophenyl)piperazin-1-yl)ethoxy)-4,7-dimethyl-2H-chromen-2-one] | no activity | did not show any activity; also recorded: no activity | 5620 ± 1850 nM | 127 to 129 °C |  |  |  |
| CC(=O)c1c(C)cc2oc(=O)cc(C)c2c1OCCCCCN1CCN(c2ccccc2F)CC1 [Compound 3b, 6-acetyl-5-(5-(4-(2-fluorophenyl)piperazin-1-yl)pentyloxy)-4,7-dimethyl-2H-chromen-2-one] |  |  | 1220 ± 166 nM | 137 to 139 °C | 20000 nM | 19200 nM | 1170 nM |
| COc1cccc(N2CCN(CCCCCOc3c(C(C)=O)c(C)cc4oc(=O)cc(C)c34)CC2)c1 [Compound 3c, 6-acetyl-5-(5-(4-(3-methoxyphenyl)piperazin-1-yl)pentyloxy)-4,7-dimethyl-2H-chromen-2-one] |  |  | 492 ± 99.7 nM | 86 to 88 °C | 1580 nM | 1550 ± 190 nM |  |
| CC(=O)c1c(C)cc2oc(=O)cc(C)c2c1OCCCCCN1CCN(c2cc(C)ccc2C)CC1 [Compound 3d, 6-acetyl-5-(5-(4-(2,5-dimethylphenyl)piperazin-1-yl)pentyloxy)-4,7-dimethyl-2H-chromen-2-one] |  |  | 1940 ± 388 nM | 97 to 99 °C | 10000 nM | 9430 ± 1040 nM |  |
| CC(=O)c1c(C)cc2oc(=O)cc(C)c2c1OCCCCCN1CCN(c2cccc(F)c2)CC1 [Compound 3e, 6-acetyl-5-(5-(4-(3-fluorophenyl)piperazin-1-yl)pentyloxy)-4,7-dimethyl-2H-chromen-2-one] |  |  | 1420 ± 426 nM | 150 to 152 °C | 708 nM | 702 ± 112 nM |  |
| CC(=O)c1c(C)cc2oc(=O)cc(C)c2c1OCCCCCN1CCN(c2ccccc2Br)CC1 [Compound 3f, 6-acetyl-5-(5-(4-(2-bromophenyl)piperazin-1-yl)pentyloxy)-4,7-dimethyl-2H-chromen-2-one] |  |  | 354 ± 110 nM | 108 to 109 °C | 692 nM | 689 ± 138 nM |  |
| CC(=O)c1c(C)cc2oc(=O)cc(C)c2c1OCCCCCN1CCN(c2cccc(Br)c2)CC1 [Compound 3g, 6-acetyl-5-(5-(4-(3-bromophenyl)piperazin-1-yl)pentyloxy)-4,7-dimethyl-2H-chromen-2-one] |  |  | 664 ± 154 nM | 100 to 102 °C | 1290 nM | 1280 ± 254 nM |  |
| CC(=O)c1c(C)cc2oc(=O)cc(C)c2c1OCCCCCN1CCN(c2cc(C)cc(C)c2)CC1 [Compound 3h, 6-acetyl-5-(5-(4-(3,5-dimethylphenyl)piperazin-1-yl)pentyloxy)-4,7-dimethyl-2H-chromen-2-one] |  |  | 1800 ± 521 nM | 100 to 102 °C | 1260 nM | 1240 ± 112 nM |  |
| CC(=O)c1c(C)cc2oc(=O)cc(C)c2c1OCCCCCN1CCN(c2cccc(Cl)c2Cl)CC1 [Compound 3i, 6-acetyl-5-(5-(4-(2,3-dichlorophenyl)piperazin-1-yl)pentyloxy)-4,7-dimethyl-2H-chromen-2-one] |  |  | 486 ± 102 nM | 129 to 130 °C | 15800 nM | 15400 nM |  |
| COc1ccccc1N1CCN(CCOc2c(C(C)=O)c(C)cc3oc(=O)cc(C)c23)CC1 [Compound 4a, 6-acetyl-5-(2-(4-(2-methoxyphenyl)piperazin-1-yl)ethoxy)-4,7-dimethyl-2H-chromen-2-one] |  |  | 5210 ± 1250 nM | 132 to 134 °C | 100 nM | 91.6 ± 13.3 nM |  |
| CC(=O)c1c(C)cc2oc(=O)cc(C)c2c1OCCN1CCN(c2ccccc2F)CC1 [Compound 4b, 6-acetyl-5-(2-(4-(2-fluorophenyl)piperazin-1-yl)ethoxy)-4,7-dimethyl-2H-chromen-2-one] |  |  | 7050 ± 1650 nM | 118 to 119 °C | 5010 nM | 5000 ± 218 nM |  |
| COc1cccc(N2CCN(CCOc3c(C(C)=O)c(C)cc4oc(=O)cc(C)c34)CC2)c1 [Compound 4c, 6-acetyl-5-(2-(4-(3-methoxyphenyl)piperazin-1-yl)ethoxy)-4,7-dimethyl-2H-chromen-2-one] |  |  | 513 ± 137 nM | 75 to 76 °C | 5010 nM | 5010 ± 117 nM |  |
| CC(=O)c1c(C)cc2oc(=O)cc(C)c2c1OCCN1CCN(c2cccc(F)c2)CC1 [Compound 4e, 6-acetyl-5-(2-(4-(3-fluorophenyl)piperazin-1-yl)ethoxy)-4,7-dimethyl-2H-chromen-2-one] |  |  | 3860 ± 810 nM | 135 to 136 °C | 501 nM | 527 ± 191 nM |  |
| CC(=O)c1c(C)cc2oc(=O)cc(C)c2c1OCCN1CCN(c2ccccc2Br)CC1 [Compound 4f, 6-acetyl-5-(2-(4-(2-bromophenyl)piperazin-1-yl)ethoxy)-4,7-dimethyl-2H-chromen-2-one] |  |  | 10600 nM | 83 to 85 °C | 8320 nM | 8320 ± 1500 nM |  |
| CC(=O)c1c(C)cc2oc(=O)cc(C)c2c1OCCN1CCN(c2cccc(Br)c2)CC1 [Compound 4g] |  |  | 3990 ± 745 nM | 127 to 128 °C | 12600 nM | 11100 nM |  |
| CC(=O)c1c(C)cc2oc(=O)cc(C)c2c1OCCN1CCN(c2cccc(Cl)c2Cl)CC1 [Compound 4i, 6-acetyl-5-(2-(4-(2,3-dichlorophenyl)piperazin-1-yl)ethoxy)-4,7-dimethyl-2H-chromen-2-one] |  |  | 1640 ± 344 nM | 162 to 163 °C | 3160 nM | 3100 ± 148 nM |  |
| CC(=O)c1c(C)cc2oc(=O)cc(C)c2c1OCCN1CCN(c2ccccc2C#N)CC1 [Compound 4j, 6-acetyl-5-(2-(4-(2-cyanophenyl)piperazin-1-yl)ethoxy)-4,7-dimethyl-2H-chromen-2-one] |  |  | 2430 ± 374 nM | 153 to 155 °C | 501 nM | 538 ± 105 nM |  |
